Measured values from patent US20260200903A1, “PHARMACEUTICAL COMPOSITION FOR AMELIORATING MALIGNANT DISEASES” (KINKI UNIVERSITY, priority 2020, published 2026).

Columns and labels:
Assay type in all cases: cell-based
[1] = test system: L363 cells (myeloma cell line); assay: Cell death inducing effect on L363 cells, trypan blue staining; settings: Homo sapiens, L-363, cell viability
Description: (§1) L363 cells (myeloma cell line) were cultured under 5% CO2 at 37° C. The culture medium used RPMI-1640 medium with 100 μg/mL penicillin, 100 U/mL streptomycin and fetal bovine serum. L363 cells were seeded into 96-well plates and incubated with each concentration of the compounds was added, and cell viability was determined by the trypan blue staining.
(§2) For controls, only 0.5% DMSO (diluted in PBS) used to dissolve the compounds was added. For each concentration, each bar line is indicated by an arrow with the sign “n, a, 1, 2, 3, 4, 5, 6, 7, 8, 9, 10, 11, 12” from left to right. The “1, 3, 5, 7, 9, 11” are omitted from the graph, but the sign “1” shall be indicated by an arrow between the signs “a” and “2”, the sign “3” between the signs “2” and “4”, and other odd numbers shall likewise be indicated by arrows between even numbers before and after.
(§3) The sign “n” is the norathyriol (formula (n)) administration group, the sign “a” is the mangiferin 8a (formula (a)) administration group, the sign “1” is the yk-7 (formula (1)) administration group, the sign “2” is the yk-8-1 (formula (2)) administration group, the sign “3” is the yk-8-3 (formula (3)) administration group, the sign “4” is the M7 (formula (4)) administration group, the sign “5” is the M9 (formula (5)) administration group, the sign “6” is the M11 (formula (6)) administration group, the sign “7” is the M12 (formula (7)) administration group, the sign “8” is the M14 (formula (8)) administration group, the sign “9” is the M15 (formula (9)) administration group, the sign “10” is the M16 (formula (10)) administration group, the sign “11” is the M18 (formula (11)) administration group, the sign “12” is the M19 (formula (12)) administration group, respectively. The IC50 values for each compound is also listed in the upper right corner of the figure.

[2] = test system: RPMI8226/B cells (bortezomib-resistant myeloma cell line); assay: Cell death inducing effect on RPMI8226/B cells, trypan blue staining; settings: Homo sapiens, RPMI-8226; RPMI8226/B (myeloma; bortezomib resistance), cell viability
Description: as §1, with “RPMI8226/B” for “L363”, “(bortezomib-resistant myeloma” for “(myeloma”
as §2, §3

[3] = test system: Rec-1 cells (mantle cell lymphoma cell line); assay: Cell death inducing effect on Rec-1 cells, trypan blue staining; settings: Homo sapiens, Rec1; Rec-1 (mantle cell lymphoma), cell viability
Description: as §1, with “Rec-1” for “L363”, “(mantle cell lymphoma” for “(myeloma”
as §2, §3

CD138 [4] = assay: CD138 expression in KMS-28BM cells, flow cytometry; settings: 10 days, concentration lower than the IC50 (0.005-50 μM), compared to the positive control
Description: (§4) As a control, compounds untreated KMS-28BM cells were seeded in 75 cm^2 flasks and incubated for 10 days at 37° C. and 5% CO2. KMS-28BM cells were seeded into 75 cm^2 flasks and pre-cultured for 4 h. After incubation, KMS-28BM cells were treated with […], 0.05 μM M9, 0.1 μM yk-7, 0.1 μM yk-8-3, 50 μM yk-8-1, 0.5 μM M11, […], 0.005 μM M14, 0.005 μM M15, 0.005 μM M16, 0.5 μM M18, and 0.5 μM M19 at final concentrations, and incubated for 10 days at 37° C. and 5% CO2. This added amount is a concentration lower than the IC50 of the above compounds for KMS-28BM cells. After 10 days of incubation, cells were stained with anti-CD138 antibody, a marker of multiple myeloma grade, and CD138 expression was measured using BD LSRFortessa.
Results are shown in FIG. 17, FIG. 18, FIG. 19 and FIG. 20. The horizontal axis represents the expression level of CD138 and the vertical axis represents the number of cells.

CD20 = CD20 expression in KMS-28BM cells, flow cytometry; settings: 10 days, concentration lower than the IC50 (0.005-50 μM), compared to the positive control
Description: as §4, with “anti-CD20” for “anti-CD138”, “B cell marker,” for “marker of multiple myeloma grade,”, “CD20” for “CD138”, “LSRFortessa. CCRF-SB cells were used as CD20-positive controls.” for “LSRFortessa.”
Results are shown in FIG. 21, FIG. 22, FIG. 23, and FIG. 24. The horizontal axis represents the expression level of CD20 and the vertical axis represents the number of cells.

CD138 [5] = assay: CD138 expression in L363 cells, flow cytometry; settings: 10 days, concentration lower than the IC50 (0.005-50 μM), compared to the positive control
Description: As a control, compounds untreated L363 cells were seeded in 75 cm^2 flasks and incubated for 10 days at 37° C. and 5% CO2. L363 cells were seeded into 75 cm^2 flasks and pre-cultured for 4 h. After incubation, L363 cells were treated with 0.1 μM M7, 0.05 μM M9, 0.1 μM yk-7, 0.1 μM yk-8-3, 50 μM yk-8-1, 0.1 μM M11, 0.01 μM M12, 0.005 μM M14, 0.005 μM M15, 0.005 μM M16, 1 μM M18, and 1 μM M19 at final concentrations, and incubated for 10 days at 37° C. and 5% CO2. This added amount is a concentration lower than the IC50 of the above compounds for L363 cells. After 10 days of incubation, cells were stained with anti-CD138 antibody, a marker of multiple myeloma grade, and CD138 expression was measured using BD LSRFortessa.
Results are shown in FIG. 25, FIG. 26, FIG. 27 and FIG. 28. The horizontal axis represents the expression level of CD138 and the vertical axis represents the number of cells.

Q: How did the IC50 [1] turn out when CCC(=O)OC[C@H]1O[C@@H](c2c(OC(=O)CC)cc3oc4cc(OC(=O)CC)c(OC(=O)CC)cc4c(=O)c3c2OC(=O)CC)[C@H](OC(=O)CC)[C@@H](OC(=O)CC)[C@@H]1OC(=O)CC [Compound M7, 1,3,2′,3′,4′,6,6′,7-octa-O-propionylmangiferin] was run?
A: Its IC50 is 5100 nM.

Q: And the IC50 [2]?
A: The IC50 was 251 nM.

Q: And the IC50 [3]?
A: Its IC50 is 2250 nM.

Q: What about the CD138 expression levels (CD138 [4]) of the same molecule?
A: Its CD138 expression levels is “markedly reduced”.

Q: What about the CD20 expression level (CD20) of the same molecule?
A: The CD20 expression level was “significantly increased”.

Q: What about the CD138 expression levels (CD138 [5]) of the same molecule?
A: Its CD138 expression levels is “markedly reduced”.
